The results in this text go back to ChEMBL document CHEMBL3045647, “Synthesis, anti-microbial evaluation, and molecular modeling of new pyrazolo[3,4-d]pyrimidine derivatives” (2012).

The first test concerns Listeria monocytogenes. Nature of the test: Antibacterial activity against Listeria monocytogenes isolated from mastitic cow milk at 100 ug/ml after 24 hr by agar well diffusion method. The class given is functional. The settings on record: read-out: IZ. (A growth-free zone around the sample is the usual read-out of agar diffusion tests.)
In the case of `Cc1nn(-c2ccccc2)c2c1C(c1ccc(Cl)cc1)n1c(s/c(=C\c3ccc(C#N)cc3)c1=O)=N2` (stereo not given), the zone of inhibition at 100 µg/mL came to 20 mm.
On the same count and under the same terms, as for `Cc1nn(-c2ccccc2)c2nc(SCC(=O)Cl)nc(-c3ccc(Cl)cc3)c12`, the figure is 29 mm; as for `Cc1nn(-c2ccccc2)c2nc(S)nc(-c3ccc(Cl)cc3)c12`, 24 mm.
On the same count and under the same terms, for `Cc1nn(-c2ccccc2)c2nc(S)nc(-c3cccs3)c12` the value was 16 mm.

The test system of the next test is Bacillus cereus. Nature of the test: Antibacterial activity against Bacillus cereus at 100 ug/ml after 24 hr by agar well diffusion method. The class given is functional. The conditions noted are these: read-out: IZ.
On to `Cc1nn(-c2ccccc2)c2c1C(c1ccc(Cl)cc1)n1c(s/c(=C\c3ccc(C#N)cc3)c1=O)=N2` (stereo not given), for which the zone of inhibition at 100 µg/mL was determined as 22 mm.
On the same count and under the same terms, for `Cc1nn(-c2ccccc2)c2nc(SCC(=O)Cl)nc(-c3ccc(Cl)cc3)c12` the value was 10 mm; for `Cc1nn(-c2ccccc2)c2nc(S)nc(-c3ccc(Cl)cc3)c12`, 22 mm.
In the case of `Cc1nn(-c2ccccc2)c2nc(S)nc(-c3cccs3)c12`, the zone of inhibition at 100 µg/mL is 18 mm.

Another test deals with Pseudomonas aeruginosa. Nature of the test: Antibacterial activity against Pseudomonas aeruginosa minced cow meet at 10 ug/ml after 24 hr by agar well diffusion method. The conditions noted are these: read-out: IZ. The class given is functional.
Turning to `NC[C@H]1O[C@H](O[C@H]2[C@H](O)[C@@H](O[C@H]3O[C@H](CO)[C@@H](O)[C@H](N)[C@H]3O)[C@H](N)C[C@@H]2N)[C@H](N)C[C@@H]1O` [TOBRAMYCIN], the zone of inhibition at 10 µg/mL is 18 mm.

The next test concerns Aspergillus flavus. Nature of the test: Antifungal activity against Aspergillus flavus at 100 ug/ml after 48 to 72 hr by agar well diffusion method. Format: functional. The conditions noted are these: read-out: IZ.
For `Cc1nn(-c2ccccc2)c2c1C(c1ccc(Cl)cc1)n1c(s/c(=C\c3ccc(C#N)cc3)c1=O)=N2` (stereo not given), the zone of inhibition at 100 µg/mL was determined as 8 mm.
Turning to `Cc1nn(-c2ccccc2)c2nc(SCC(=O)Cl)nc(-c3ccc(Cl)cc3)c12`, the zone of inhibition at 100 µg/mL worked out at 9 mm.
The same measure, in the same setting: for `Cc1nn(-c2ccccc2)c2nc(S)nc(-c3ccc(Cl)cc3)c12` the value was 0 mm; for `Cc1nn(-c2ccccc2)c2nc(S)nc(-c3cccs3)c12`, 10 mm.

The next test has as its system Escherichia coli. Nature of the test: Antibacterial activity against Escherichia coli O157:H7 isolated from poultry at 10 ug/ml after 24 hr by agar well diffusion method. The class given is functional. The conditions noted are these: O157:H7, 24 h, read-out: IZ.
Take `NC[C@H]1O[C@H](O[C@H]2[C@H](O)[C@@H](O[C@H]3O[C@H](CO)[C@@H](O)[C@H](N)[C@H]3O)[C@H](N)C[C@@H]2N)[C@H](N)C[C@@H]1O` [TOBRAMYCIN]: the zone of inhibition at 10 µg/mL worked out at 20 mm.

For another test, the system named is Staphylococcus aureus. Nature of the test: Antibacterial activity against Staphylococcus aureus minced cow meet at 10 ug/ml after 24 hr by agar well diffusion method. Format: functional. The settings on record: read-out: IZ.
Consider `NC[C@H]1O[C@H](O[C@H]2[C@H](O)[C@@H](O[C@H]3O[C@H](CO)[C@@H](O)[C@H](N)[C@H]3O)[C@H](N)C[C@@H]2N)[C@H](N)C[C@@H]1O` [TOBRAMYCIN], for which the zone of inhibition at 10 µg/mL is 19 mm.

The test system of a further test is Aspergillus flavus. Nature of the test: Antifungal activity against Aspergillus flavus at 25 ug/ml after 48 to 72 hr by agar well diffusion method. The class given is functional. The conditions noted are these: read-out: IZ.
Take `OC(Cn1cncn1)(Cn1cncn1)c1ccc(F)cc1F` [FLUCONAZOLE]: the zone of inhibition at 25 µg/mL is 16 mm.

A further test deals with Staphylococcus aureus. Nature of the test: Antibacterial activity against Staphylococcus aureus isolated from minced cow meet at 100 ug/ml after 24 hr by agar well diffusion method. The class given is functional. The conditions noted are these: read-out: IZ.
Turning to `Cc1nn(-c2ccccc2)c2c1C(c1ccc(Cl)cc1)n1c(s/c(=C\c3ccc(C#N)cc3)c1=O)=N2` (stereo not given), the zone of inhibition at 100 µg/mL is 28 mm.
On the same count and under the same terms, as for `Cc1nn(-c2ccccc2)c2nc(SCC(=O)Cl)nc(-c3ccc(Cl)cc3)c12`, the figure is 14 mm; as for `Cc1nn(-c2ccccc2)c2nc(S)nc(-c3ccc(Cl)cc3)c12`, 18 mm.
Still for that read-out and setting: for `Cc1nn(-c2ccccc2)c2nc(S)nc(-c3cccs3)c12` the value was 14 mm.

The test system of the next test is Salmonella typhimurium. Nature of the test: Antibacterial activity against Salmonella enterica subsp. enterica serovar Typhimurium isolated from mastitic cow milk at 100 ug/ml after 24 hr by agar well diffusion method. The settings on record: read-out: IZ. The class given is functional.
For `Cc1nn(-c2ccccc2)c2c1C(c1ccc(Cl)cc1)n1c(s/c(=C\c3ccc(C#N)cc3)c1=O)=N2` (stereo not given), the zone of inhibition at 100 µg/mL came out at 15 mm.
The same measure, in the same setting: as for `Cc1nn(-c2ccccc2)c2nc(SCC(=O)Cl)nc(-c3ccc(Cl)cc3)c12`, the figure is 11 mm; as for `Cc1nn(-c2ccccc2)c2nc(S)nc(-c3ccc(Cl)cc3)c12`, 12 mm.
Still for that read-out and setting: as for `Cc1nn(-c2ccccc2)c2nc(S)nc(-c3cccs3)c12`, the figure is 14 mm.

The subject of a further test is Listeria monocytogenes. Nature of the test: Antibacterial activity against Listeria monocytogenes isolated from mastitic cow milk at 10 ug/ml after 24 hr by agar well diffusion method. The class given is functional. The conditions noted are these: read-out: IZ.
Consider `NC[C@H]1O[C@H](O[C@H]2[C@H](O)[C@@H](O[C@H]3O[C@H](CO)[C@@H](O)[C@H](N)[C@H]3O)[C@H](N)C[C@@H]2N)[C@H](N)C[C@@H]1O` [TOBRAMYCIN], for which the zone of inhibition at 10 µg/mL is 20 mm.

In another test the test system is Escherichia coli. Nature of the test: Antibacterial activity against Escherichia coli O157:H7 isolated from poultry at 100 ug/ml after 24 hr by agar well diffusion method. Format: functional. The settings on record: O157:H7, 24 h, read-out: IZ.
For the molecule `Cc1nn(-c2ccccc2)c2c1C(c1ccc(Cl)cc1)n1c(s/c(=C\c3ccc(C#N)cc3)c1=O)=N2` (stereo not given), the zone of inhibition at 100 µg/mL turned out to be 18 mm.
Regarding `Cc1nn(-c2ccccc2)c2nc(SCC(=O)Cl)nc(-c3ccc(Cl)cc3)c12`, the zone of inhibition at 100 µg/mL is 9 mm.
On the same count and under the same terms, for `Cc1nn(-c2ccccc2)c2nc(S)nc(-c3ccc(Cl)cc3)c12` the value was 0 mm; for `Cc1nn(-c2ccccc2)c2nc(S)nc(-c3cccs3)c12`, 14 mm.

A further test has as its system Salmonella typhimurium. Nature of the test: Antibacterial activity against Salmonella enterica subsp. enterica serovar Typhimurium isolated from mastitic cow milk at 10 ug/ml after 24 hr by agar well diffusion method. Format: functional. The settings on record: read-out: IZ.
Turning to `NC[C@H]1O[C@H](O[C@H]2[C@H](O)[C@@H](O[C@H]3O[C@H](CO)[C@@H](O)[C@H](N)[C@H]3O)[C@H](N)C[C@@H]2N)[C@H](N)C[C@@H]1O` [TOBRAMYCIN], the zone of inhibition at 10 µg/mL amounted to 18 mm.

In a further test the test system is Candida albicans. Nature of the test: Antifungal activity against Candida albicans at 100 ug/ml after 48 to 72 hr by agar well diffusion method. Format: functional. The conditions noted are these: read-out: IZ.
For the molecule `Cc1nn(-c2ccccc2)c2c1C(c1ccc(Cl)cc1)n1c(s/c(=C\c3ccc(C#N)cc3)c1=O)=N2` (stereo not given), the zone of inhibition at 100 µg/mL stood at 9 mm.
On the same count and under the same terms, as for `Cc1nn(-c2ccccc2)c2nc(SCC(=O)Cl)nc(-c3ccc(Cl)cc3)c12`, the figure is 8 mm; as for `Cc1nn(-c2ccccc2)c2nc(S)nc(-c3ccc(Cl)cc3)c12`, 29 mm; as for `Cc1nn(-c2ccccc2)c2nc(S)nc(-c3cccs3)c12`, 10 mm.

The next test concerns Candida albicans. Nature of the test: Antifungal activity against Candida albicans at 25 ug/ml after 48 to 72 hr by agar well diffusion method. The class given is functional. The settings on record: read-out: IZ.
As to `OC(Cn1cncn1)(Cn1cncn1)c1ccc(F)cc1F` [FLUCONAZOLE], the zone of inhibition at 25 µg/mL is 17 mm.

The test system of a further test is Pseudomonas aeruginosa. Nature of the test: Antibacterial activity against Pseudomonas aeruginosa minced cow meet at 100 ug/ml after 24 hr by agar well diffusion method. The class given is functional. The settings on record: read-out: IZ.
In the case of `Cc1nn(-c2ccccc2)c2c1C(c1ccc(Cl)cc1)n1c(s/c(=C\c3ccc(C#N)cc3)c1=O)=N2` (stereo not given), the zone of inhibition at 100 µg/mL is 18 mm.
The same measure, in the same setting: as for `Cc1nn(-c2ccccc2)c2nc(SCC(=O)Cl)nc(-c3ccc(Cl)cc3)c12`, the figure is 22 mm; as for `Cc1nn(-c2ccccc2)c2nc(S)nc(-c3ccc(Cl)cc3)c12`, 24 mm.
Still for that read-out and setting: for `Cc1nn(-c2ccccc2)c2nc(S)nc(-c3cccs3)c12` the value was 16 mm.

The test system of another test is Bacillus cereus. Nature of the test: Antibacterial activity against Bacillus cereus at 10 ug/ml after 24 hr by agar well diffusion method. The class given is functional. The settings on record: read-out: IZ.
On to `NC[C@H]1O[C@H](O[C@H]2[C@H](O)[C@@H](O[C@H]3O[C@H](CO)[C@@H](O)[C@H](N)[C@H]3O)[C@H](N)C[C@@H]2N)[C@H](N)C[C@@H]1O` [TOBRAMYCIN], for which the zone of inhibition at 10 µg/mL is 19 mm.
